A short description of the data set: Biodistribution after single Carboxylated CTX-Cryptophycin dose in NRP1 WT or KO PC-3 xenografts in SCID mice. Format: in vivo, mouse. The conditions noted are these: single 0.6 mg/kg Carboxylated CTX-Cryptophycin IV. The protocol: Cells used were human prostate cancer cells, PC-3 (ATCC® CRL-1435™) engineered at WuXi AppTec to generate an isogenic pair of cell lines WT (PC-3-sg1-4 WT cells) and KO (PC-3-sg1-9 KO cells) for NRP1. Mice used were female, ˜6 week old, immune compromised NOD. SCID from Charles River laboratories. Identical experiments were performed side by side in the isogenic xenograft models. Drug administration was performed when tumor size reached ˜300 to 500 mm^3. A single dose of Carboxylated CTX-Cryptophycin at 0.6 mg/kg was administered (to mimic dose where differential efficacy was observed) intravenously in the following vehicle: 10% EtOH, 5% Tween80 and 85% saline. Animals were euthanized and whole blood (cardiac puncture) and tumor tissues harvested at predetermined time points from 5 min to 96 h post-dose (n=3 mice per time point). Blood samples were centrifuged to obtain plasma and subsequently stored at −20° C. or lower pending analysis. Tumors were harvested by removing the entire specimen from surrounding tissues. Specimens were immediately rinsed with normal saline solution, blotted dry, then weighed and stored at −20° C. or lower pending analysis. Tumor tissue was cryofractured using the Covaris Cryoprep System (Covaris, Inc.). Once pulverized, samples were lysed in 3:1 (v:w) 1×PBS containing 1× Halt™ Protease Inhibitor Cocktail and 1×EDTA solution (Thermo Scientific, Product No. 78430). Plasma and homogenized tissue samples were extracted via protein precipitation with 3:1 (v:v) methanol:acetonitrile 1:1 (v:v) containing 0.1% acetic acid. […] Pharmacokinetic (PK) parameters were calculated using non-compartmental analysis in C3PO (a proprietary Eisai compound database and pharmacokinetic analysis tool). Mean plasma and tissue concentrations were used to calculate mean PK parameters.

As for `COc1ccc(CC2NC(=O)C=CCC(C(C)C3OC3c3ccc(CN4CCN(CCC(C)(C)SC)CC4)cc3)OC(=O)C(CC(C)C)NC(=O)C(C)(C)CNC2=O)cc1Cl` (stereo not shown) [Cryptophycin Metabolite 1], under “NRP1 KO tumors”, the “Tumor AUC0-96 h of Cryptophycin Metabolite 1” value is 385 pmol·h/g and the “Tumor tmax of Cryptophycin Metabolite 1” value came out at 24 h. In addition, under “NRP1 WT tumors”, the “Tumor AUC0-96 h of Cryptophycin Metabolite 1” value is listed as 1494 pmol·h/g and the “Tumor tmax of Cryptophycin Metabolite 1” value was 48 h.

These data come from US11826399B2, “Chlorotoxin agents and uses thereof” (Eisai Inc., priority 2017, dated 2023).
